Test results taken from article PMC10088252.
Where “and” joins values, the source holds several entries; their conditions need not be identical. Equal entries are not always repeated. Where two headings read alike, the source gives them in different places.

Key:
[1] = Chinese patients with advanced NSCLC, even at 800 mg QD; cited from earlier work
[2] = Plasma PK after multiple doses for 28 days, Part A (PKAS), routine PK analysis; format: in vivo, human
Protocol: Serial peripheral blood samples were collected at pre-dose on Cycle 1 Day 8, Cycle 1 Day 15 and Cycle 1 Day 22 for the trough concentration (Ctrough) obtained during the dosing interval. […] After Cycle 1, the Ctrough was measured every 4 or 8 or 12 weeks. The whole blood (3 mL) was taken intravenously and placed in sodium heparin tubes, gently turned over 15 times, and centrifuged within 1 h (4 °C 3000 rpm for 10 min). Two portions of the centrifuged upper plasma should be transferred to 1.5 mL centrifuge tubes with identification labels and stored at -80 °C. The following PK parameters were assessed: time to maximum plasma concentration at steady state (Tmax,ss), overall body clearance at steady state for extravascular dosage (CLss/F), terminal half-life (T1/2), plasma Ctrough observed in Cycle 1 at steady state, total volume of drug distribution at steady state according to the terminal phase (Vz,ss/F), AUC over a dosing interval (AUCtau), ratio of metabolites to parent drug calculated based on AUCtau (MP ratio).
Statistical analyses were performed using SAS version 9.4 (SAS Institute, Cary, NC, USA). Age was expressed as median (range), and categorical variables were expressed as frequency (percentage). The 95% CIs of ORR and DCR were calculated using Clopper-Pearson method. The 95% CIs of PFS and OS were calculated using Brookmeyer-Crowley method. PK parameters were expressed as mean (standard deviation) or median (range), and analyzed using Phoenix version 8.0 (Certara, LP, Princeton, NJ, USA). No imputation method was performed for missing data.

[3] = system: locally advanced or metastatic NSCLC harboring c-MET overexpression or MET exon 14 skipping mutation; format: in vivo, human
Protocol: Patients enrolled in this study were divided into two parts. […] Patients with pre-existing c-MET overexpression at hospital diagnosis were also included in Part A. In Part B, patients in the 400 mg bis in die (BID) dose cohort, blood and tissue samples were collected to perform NGS to determine the MET exon 14 skipping mutation. Patients harboring pre-existing MET exon 14 skipping mutation at hospital diagnosis were also enrolled into Part B. […] Statistical analyses were performed using SAS version 9.4 (SAS Institute, Cary, NC, USA). Age was expressed as median (range), and categorical variables were expressed as frequency (percentage). The 95% CIs of ORR and DCR were calculated using Clopper-Pearson method. […] No imputation method was performed for missing data.

## O=C(Nc1ccc(Oc2ccnc3c2CCN3)c(F)c1)c1c[nH]cc(-c2ccc(F)cc2)c1=O
[1]
  dose-limiting toxicity (DLT): No dose-limiting toxicity (DLT) occurred
[2]; 300 mg QD (n=7), 28 days
  AUCtau, mean (SD): 7680.0 (4120.0) h × ng/mL
  CLss/F, mean (SD): 50.4 (25.6) L/h
  Cmax,ss, mean (SD): 794.0 (370.0) ng/mL
  Cmin,ss, mean (SD): 104.0 (49.0) ng/mL
  Ctrough, mean (SD): 113.5 (55.0) ng/mL
  T1/2, mean (SD): 11.2 (2.8) h
  Tmax,ss, mean (SD): 3.9 (2.0) h
  Vz,ss/F, mean (SD): 781.0 (357.0) L
[2]; 450 mg QD (n=7), 28 days
  AUCtau, mean (SD): 11,000.0 (5970.0) h × ng/mL
  CLss/F, mean (SD): 57.6 (39.5) L/h
  Cmax,ss, mean (SD): 932.0 (480.0) ng/mL
  Cmin,ss, mean (SD): 168.0 (127.0) ng/mL
  Ctrough, mean (SD): 184.1 (131.2) ng/mL
  T1/2, mean (SD): 11.8 (4.8) h
  Tmax,ss, mean (SD): 4.0 (1.0) h
  Vz,ss/F, mean (SD): 1050.0 (974.0) L
[2]; 600 mg QD (n=7), 28 days
  AUCtau, mean (SD): 10,100.0 (5350.0) h × ng/mL
  CLss/F, mean (SD): 83.2 (58.9) L/h
  Cmax,ss, mean (SD): 788.0 (394.0) ng/mL
  Cmin,ss, mean (SD): 157.0 (89.6) ng/mL
  Ctrough, mean (SD): 203.9 (99.2) ng/mL
  T1/2, mean (SD): 12.7 (4.8) h
  Tmax,ss, mean (SD): 3.9 (2.0) h
  Vz,ss/F, mean (SD): 1780.0 (2080.0) L
[2]; Cycle 1 Day 8 (192 h), 300 mg QD (n=7)
  Ctrough, mean (SD): 163.0 (241.5) ng/mL
[2]; Cycle 1 Day 8 (192 h), 450 mg QD (n=7)
  Ctrough, mean (SD): 178.1 (128.0) ng/mL
[2]; Cycle 1 Day 8 (192 h), 600 mg QD (n=7)
  Ctrough, mean (SD): 165.6 (66.6) ng/mL
[2]; Cycle 1 Day 15 (360 h), 300 mg QD (n=7)
  Ctrough, mean (SD): 161.5 (126.3) ng/mL
[2]; Cycle 1 Day 15 (360 h), 450 mg QD (n=7)
  Ctrough, mean (SD): 216.5 (111.8) ng/mL
[2]; Cycle 1 Day 15 (360 h), 600 mg QD (n=7)
  Ctrough, mean (SD): 188.7 (67.3) ng/mL
[2]; Cycle 1 Day 22 (528 h), 300 mg QD (n=7)
  Ctrough, mean (SD): 124.2 (126.2) ng/mL
[2]; Cycle 1 Day 22 (528 h), 450 mg QD (n=7)
  Ctrough, mean (SD): 236.3 (83.4) ng/mL
[2]; Cycle 1 Day 22 (528 h), 600 mg QD (n=7)
  Ctrough, mean (SD): 164.1 (65.7) ng/mL
[2]; among 300, 450, 600 mg QD cohorts, 28 days
  median Tmax,ss: 4.0 h
[2]; continuous administration
  time to steady state: seven
[3]; 300 mg QD (n=12)
  BOR CR: 0 n (%)
  BOR NE (patients not evaluable): 0 n (%)
  BOR PD: 7 (58.3) n (%)
  BOR PR: 0 n (%)
  BOR SD: 5 (41.7) n (%)
  DCR (95% CI): 41.7% and 41.7 (15.2, 72.3) %
  ORR (95% CI): 0 (0, 26.5) %
  PFS, median (95% CI): 1.9 months and 1.9 (1.9, 5.6) months
[3]; 400 mg BID (n=4)
  BOR CR: 0 n (%)
  BOR PD: 0 n (%)
  BOR PR: 0 n (%)
[3]; 450 mg QD (n=12)
  BOR CR: 0 n (%)
  BOR PD: 6 (50.0) n (%)
  BOR PR: 0 n (%)
  BOR SD: 4 (33.3) n (%)
  DCR (95% CI): 33.3% and 33.3 (9.9, 65.1) %
  ORR (95% CI): 0 (0, 26.5) %
  OS, median (95% CI): 9.3 months and 9.3 (2.6, NE) months
  PFS, median (95% CI): 1.9 months and 1.9 (1.1, 3.8) months
[3]; 600 mg QD (n=10)
  BOR CR: 0 n (%)
  BOR PD: 2 (20.0) n (%)
  BOR SD: 3 (30.0) n (%)
  DCR (95% CI): 40.0% and 40.0 (12.2, 73.8) %
  ORR (95% CI): 10.0 (0.3, 44.5) %
  PFS, median (95% CI): 1.8 months and 1.8 (1.2, 3.9) months
[3]; Part A (n=34), c-MET overexpression
  ORR: 2.9%
[3]; Part B, 400 mg BID (n=4)
  DCR (95% CI): 75.0% and 75.0 (19.4, 99.4) %
  ORR (95% CI): 0% and 0 (0, 60.2) %
  PFS, median (95% CI): 3.4 months and 3.4 (3.2, 3.7) months
[3]; Total (n=38)
  BOR CR: 0 n (%)
  BOR PD: 15 (39.5) n (%)
  BOR SD: 15 (39.5%) n (%) and 15 (39.5) n (%)
  DCR (95% CI): 42.1% and 42.1 (26.3, 59.2) %
  ORR (95% CI): 2.6% and 2.6 (0.1, 13.8) %
  OS, median (95% CI): 10.3 months and 10.3 (7.3, NE) months
  PFS, median (95% CI): 1.9 months and 1.9 (1.9, 3.7) months
